Values of other authors in US6525037B1, “Method of treating atherosclerosis and complications resulting therefrom” (BioNumerik Pharmaceuticals, Inc., priority 2000, dated 2003).

Settings: accepted value

[Cl-].[Na+] [common table salt]
oral LD50: 3750 mg/kg
